Where two headings read alike, the source gives them in different places.
Experiments:
RORγt [1] = target: T1, RORγt (Homo sapiens, UniProt P51449); test: RORγt binding test (TR-FRET, fluorescent-labeled cholesterol); details: read-out: binding inhibitory rate (%) of fluorescent-labeled cholesterol to RORγt at test compound 1 μM
T1 sequence (P51449 1-497 isoform P51449-2): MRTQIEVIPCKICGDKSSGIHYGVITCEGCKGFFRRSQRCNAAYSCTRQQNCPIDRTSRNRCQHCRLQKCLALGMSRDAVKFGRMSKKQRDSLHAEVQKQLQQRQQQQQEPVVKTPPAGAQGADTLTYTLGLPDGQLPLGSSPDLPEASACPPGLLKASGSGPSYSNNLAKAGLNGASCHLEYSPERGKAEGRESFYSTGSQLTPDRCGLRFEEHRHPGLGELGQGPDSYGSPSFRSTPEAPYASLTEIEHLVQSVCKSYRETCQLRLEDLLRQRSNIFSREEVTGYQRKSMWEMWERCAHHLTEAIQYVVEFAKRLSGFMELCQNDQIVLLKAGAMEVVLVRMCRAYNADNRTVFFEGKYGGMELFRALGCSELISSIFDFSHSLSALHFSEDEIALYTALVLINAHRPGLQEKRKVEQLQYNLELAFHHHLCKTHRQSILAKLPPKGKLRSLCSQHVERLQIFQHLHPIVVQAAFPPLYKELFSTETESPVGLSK
Protocol: The binding activity of the test compound to RORγt was measured by a time resolved fluorescence resonance energy transfer method (TR-FRET) utilizing histidine-tagged RORγt, fluorescent-labeled cholesterol (BODIPY-cholesterol, AVIVA), and terbium-labeled anti-histidine tag antibody (Invitrogen). First, a test compound diluted with an assay buffer (20 mM Tris-HCl (pH 7.5), 100 mM NaCl, 1 mM DTT, 0.1% BSA) was added to a 384 well plate by 3 μL. Then, RORγt diluted with an assay buffer to 240 nM was added by 3 μL, after which fluorescent-labeled cholesterol diluted with the assay buffer to 12 μM was added by 3 μL, and the mixture was stood at room temperature for 20 min. Thereafter, a terbium-labeled anti-histidine tag antibody diluted with the assay buffer to 8 nM was added by 3 μL. The mixture was stood at room temperature for 20 min, and fluorescence intensity (excitation wavelength 320 nm, fluorescence wavelength 520 nm, delay time 100 microseconds) was measured by Envision (PerkinElmer).

RORγt [2] = target: T1, RORγt; test: Cofactor recruitment test (Alpha Screen, biotinylated SRC-1 peptide); assay type: biochemical; details: read-out: signal value inhibitory rate (%) at test compound 1 μM
Protocol: Cofactor Recruitment Test
Cofactor recruitment test was performed by Alpha Screen (Histidine Detection Kit, PerkinElmer) method. First, a test compound was diluted with an assay buffer (50 mM Tris-HCl (pH 7.5), 50 mM KCl, 1 mM DTT, 0.1% BSA) and added to a 384 well plate by 5 μL. […] The mixture was stood in a dark place for 1 hr, and the signal value was measured by Envision (PerkinElmer).

RORγt [3] = target: T1, RORγt; test: Jurkat reporter test (human IL-17 ROR response element luciferase reporter); assay type: cell-based; details: read-out: luminescence level inhibitory rate (%) at test compound 3 μM
Protocol: The Jurkat cells used for the reporter test were cultured in a culture medium (RPMI (Invitrogen), 10% FCS (AusGeneX), 100 U/mL penicillin, 100 μg/mL streptomycin). On the day of the test, 4×10^7 cells were recovered by a centrifugal operation (1000 rpm, 5 min.) and suspended in PBS (phosphate buffered saline) (Invitrogen). Thereafter, the cells were recovered again by a centrifugal operation, and suspended in 2 mL of R buffer (NEON transfection kit, Invitrogen). […] Gene transfer was performed by Electroporation apparatus (NEON, Invitrogen) under the conditions of pulse voltage 1350 V, interval 10 milliseconds, number of times 3. The cells after gene transfer were suspended in 40 mL of a reaction medium (RPMI, 10% Lipid reduced FCS (HyClone), 10 mM HEPES (pH 7.5), 100 U/mL penicillin, 100 μg/mL streptomycin, 5 μM lovastatin), and plated in a 96 well plate by 90 μL. A test compound diluted with the reaction medium was added by 10 μL, and the cells were cultured overnight in an incubator. Bright-Glo (Promega) was added by 100 μL, and the mixture was stirred at room temperature for 10 min, and the luminescence level was measured by Envision (PerkinElmer).

[4] = test compound 3 μM, Jurkat cells

inhibition at 3 µM (RORγt [3]; [4]) | Compound | inhibition at 1 µM (RORγt [1]) | inhibition at 1 µM (RORγt [2]) | inhibition at 3 µM (RORγt [3]; Jurkat)
 | COc1ccc([C@H](C(=O)Nc2cc(F)c([Si](C)(C)C)cc2F)N(C)C(=O)c2cc(O)no2)cc1 [Example 25, N-((1R)-2-((2,5-difluoro-4-(trimethylsilyl)phenyl)amino)-1-(4-methoxyphenyl)-2-oxoethyl)-3-hydroxy-N-methyl-1,2-oxazole-5-carboxamide] | 102% | 95.7% | 100%
93.4% | CC(C)(C)c1ccc(NC(=O)[C@H](NC(=O)C2CNC(=O)O2)C2CCC(F)(F)CC2)cc1F (stereo partly drawn) [Example 8, N-((1R)-2-((4-tert-butyl-3-fluorophenyl)amino)-1-(4,4-difluorocyclohexyl)-2-oxoethyl)-2-oxo-1,3-oxazolidine-5-carboxamide] | 102% | 49.1% | 
 | COCc1ccc([C@@H](NC(=O)CC(F)(F)F)C(=O)Nc2ccc([Si](C)(C)C)c(F)c2)cc1 [Example 93, 3,3,3-trifluoro-N-((1R)-2-((3-fluoro-4-(trimethylsilyl)phenyl)amino)-1-(4-(methoxymethyl)phenyl)-2-oxoethyl)propanamide] | 102% | 92.3% | 99.1%
 | COCc1ccc([C@@H](NC(=O)c2cc(O)no2)C(=O)Nc2cc(F)c([Si](C)(C)C)cc2F)cc1 [Example 98, N-((1R)-2-((2,5-difluoro-4-(trimethylsilyl)phenyl)amino)-1-(4-(methoxymethyl)phenyl)-2-oxoethyl)-3-hydroxy-1,2-oxazole-5-carboxamide] | 102% | 95.8% | 99.2%
 | COCc1ccc([C@@H](NC(=O)CCC(F)(F)F)C(=O)Nc2ccc([Si](C)(C)C)c(F)c2)cc1 [Example 94, 4,4,4-trifluoro-N-((1R)-2-((3-fluoro-4-(trimethylsilyl)phenyl)amino)-1-(4-(methoxymethyl)phenyl)-2-oxoethyl)butanamide] | 102% | 91.5% | 101%
 | COCc1ccc([C@H](C(=O)Nc2cc(F)c([Si](C)(C)C)c(F)c2)N(C)C(=O)c2cc(O)no2)cc1 [Example 77, N-((1R)-2-((3,5-difluoro-4-(trimethylsilyl)phenyl)amino)-1-(4-(methoxymethyl)phenyl)-2-oxoethyl)-3-hydroxy-N-methyl-1,2-oxazole-5-carboxamide] | 103% | 97.3% | 99.7%
102% | COCc1ccc([C@@H](NC(=O)Cc2cc(O)no2)C(=O)Nc2cc(F)c(C(C)(C)C)c(F)c2)cc1 [Example 114, (2R)—N-(4-tert-butyl-3,5-difluorophenyl)-2-(((3-hydroxy-1,2-oxazol-5-yl)acetyl)amino)-2-(4-(methoxymethyl)phenyl)acetamide] | 101% | 90.1% | 
 | COCc1ccc([C@@H](NC(=O)CCC(F)F)C(=O)Nc2ccc([Si](C)(C)C)c(F)c2)cc1 [Example 92, 4,4-difluoro-N-((1R)-2-((3-fluoro-4-(trimethylsilyl)phenyl)amino)-1-(4-(methoxymethyl)phenyl)-2-oxoethyl)butanamide] | 102% | 92.8% | 98.8%
 | COCc1ccc([C@@H](NC(=O)Cn2ccc(=O)[nH]c2=O)C(=O)Nc2ccc([Si](C)(C)C)c(F)c2)cc1 [Example 59, (2R)-2-(((2,4-dioxo-3,4-dihydropyrimidin-1(2H)-yl)acetyl)amino)-N-(3-fluoro-4-(trimethylsilyl)phenyl)-2-(4-(methoxymethyl)phenyl)acetamide] | 102% | 96% | 99.2%
97.8% | COCc1ccc([C@@H](NC(=O)[C@H]2CNC(=O)C2)C(=O)Nc2ccc(C(C)(C)C)c(F)c2)cc1 [Example 102, (3R)—N-((1R)-2-((4-tert-butyl-3-fluorophenyl)amino)-1-(4-(methoxymethyl)phenyl)-2-oxoethyl)-5-oxopyrrolidine-3-carboxamide] | 100% | 83.8% | 
 | COCc1ccc([C@@H](NC(=O)[C@@H]2CNC(=O)C2)C(=O)Nc2cc(F)c([Si](C)(C)C)cc2F)cc1 [Example 51, (3S)—N-((1R)-2-((2,5-difluoro-4-(trimethylsilyl)phenyl)amino)-1-(4-(methoxymethyl)phenyl)-2-oxoethyl)-5-oxopyrrolidine-3-carboxamide] | 102% | 97.3% | 98%
 | COCc1ccc([C@@H](NC(=O)N2CC(O)C2)C(=O)Nc2ccc([Si](C)(C)C)c(F)c2)cc1 [Example 69, N-((1R)-2-((3-fluoro-4-(trimethylsilyl)phenyl)amino)-1-(4-(methoxymethyl)phenyl)-2-oxoethyl)-3-hydroxyazetidine-1-carboxamide] | 103% | 96.8% | 98.4%
95.4% | COCc1ccc(C(NC(=O)[C@@H]2CNC(=O)C2)C(=O)Nc2ccc(CC(C)(C)C)c(F)c2)cc1 (mixture of isomers) [Example 110, (3S)—N-(2-((4-(2,2-dimethylpropyl)-3-fluorophenyl)amino)-1-(4-(methoxymethyl)phenyl)-2-oxoethyl)-5-oxopyrrolidine-3-carboxamide] | 99.6% | 71.1% | 
 | COCc1ccc([C@@H](NC(=O)CCCC(=O)O)C(=O)Nc2cc(F)c([Si](C)(C)C)c(F)c2)cc1 [Example 107, 5-(((1R)-2-((3,5-difluoro-4-(trimethylsilyl)phenyl)amino)-1-(4-(methoxymethyl)phenyl)-2-oxoethyl)amino)-5-oxopentanoic acid] | 103% | 95.7% | 100%
 | COCc1ccc(C(NC(=O)Cc2nnc(C)o2)C(=O)Nc2cc(F)c([Si](C)(C)C)cc2F)cc1 (stereo not drawn) [Example 44, N-(2,5-difluoro-4-(trimethylsilyl)phenyl)-2-(4-(methoxymethyl)phenyl)-2-(((5-methyl-1,3,4-oxadiazol-2-yl)acetyl)amino)acetamide] | 102% | 95.7% | 102%
 | COc1ccc(C(NC(=O)N2CC(O)C2)C(=O)Nc2cc(F)c([Si](C)(C)C)c(F)c2)cc1 (stereo not drawn) [Example 41, N-(2-((3,5-difluoro-4-(trimethylsilyl)phenyl)amino)-1-(4-methoxyphenyl)-2-oxoethyl)-3-hydroxyazetidine-1-carboxamide] | 101% | 94.4% | 100%
100% | COCc1ccc([C@@H](NC(=O)Cc2nnc(C)o2)C(=O)Nc2ccc(C(C)(C)C)c(F)c2)cc1 [Example 105, (2R)—N-(4-tert-butyl-3-fluorophenyl)-2-(4-(methoxymethyl)phenyl)-2-(((5-methyl-1,3,4-oxadiazol-2-yl)acetyl)amino)acetamide] | 101% | 85.5% | 
 | COc1ccc(C(NC(=O)N2CC(O)C2)C(=O)Nc2ccc([Si](C)(C)C)c(F)c2)cc1 (stereo not drawn) [Example 30, N-(2-((3-fluoro-4-(trimethylsilyl)phenyl)amino)-1-(4-methoxyphenyl)-2-oxoethyl)-3-hydroxyazetidine-1-carboxamide] | 98.5% | 95.1% | 99.8%
